The text below walks through data of patent US20030171377A1, “Antidiabetic agents” (priority 2001, published 2003).

The subject of data set [1] is Ob/Ob diabetic mouse model. As to the kind of experiment: In vivo glucose lowering, Ob/Ob diabetic mouse model. Conditions: for In vivo % Rosiglitazone: glucose effect relative to rosiglitazone.
Data set [2] concerns promoter/enhancer of the murine aP2 gene (PPAR-γ ligands). As to the kind of experiment: 3T3-L1 Transient Reporter Assay (AD3T3-L1 Reporter), Test E. Conditions: for AD3T3-L1 Reporter Max. % Rosi: maximal response relative to rosiglitazone. In general terms: In a reporter assay the amount or activity of a reporter protein is the signal.
In the next data set the target is T1, PPAR alpha (Homo sapiens, UniProt Q07869).
T1 construct: expressed in transfected cells; host or cells: HepG2
T1 sequence (Q07869 1-468): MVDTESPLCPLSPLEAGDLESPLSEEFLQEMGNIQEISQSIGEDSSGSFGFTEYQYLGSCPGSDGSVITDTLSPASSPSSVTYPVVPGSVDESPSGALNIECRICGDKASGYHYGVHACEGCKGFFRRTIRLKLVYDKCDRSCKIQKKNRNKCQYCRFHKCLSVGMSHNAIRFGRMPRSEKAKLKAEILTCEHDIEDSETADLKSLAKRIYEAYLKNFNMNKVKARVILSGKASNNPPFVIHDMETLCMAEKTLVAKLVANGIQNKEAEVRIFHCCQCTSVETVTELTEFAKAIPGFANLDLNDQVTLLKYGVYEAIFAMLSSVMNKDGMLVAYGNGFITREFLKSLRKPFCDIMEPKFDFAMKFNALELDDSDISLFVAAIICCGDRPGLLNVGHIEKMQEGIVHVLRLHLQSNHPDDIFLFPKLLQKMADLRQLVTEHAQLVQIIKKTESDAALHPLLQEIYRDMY
As to the kind of experiment: HepG2-hALPHA assay (PPAR alpha). Conditions: HepG2 cells. Type of data set: cell-based.

For another data set, the target named is T2, PPAR gamma (Mus musculus, UniProt P37238).
T2 construct: expressed in transfected cells; host or cells: HepG2
T2 sequence (P37238 1-505): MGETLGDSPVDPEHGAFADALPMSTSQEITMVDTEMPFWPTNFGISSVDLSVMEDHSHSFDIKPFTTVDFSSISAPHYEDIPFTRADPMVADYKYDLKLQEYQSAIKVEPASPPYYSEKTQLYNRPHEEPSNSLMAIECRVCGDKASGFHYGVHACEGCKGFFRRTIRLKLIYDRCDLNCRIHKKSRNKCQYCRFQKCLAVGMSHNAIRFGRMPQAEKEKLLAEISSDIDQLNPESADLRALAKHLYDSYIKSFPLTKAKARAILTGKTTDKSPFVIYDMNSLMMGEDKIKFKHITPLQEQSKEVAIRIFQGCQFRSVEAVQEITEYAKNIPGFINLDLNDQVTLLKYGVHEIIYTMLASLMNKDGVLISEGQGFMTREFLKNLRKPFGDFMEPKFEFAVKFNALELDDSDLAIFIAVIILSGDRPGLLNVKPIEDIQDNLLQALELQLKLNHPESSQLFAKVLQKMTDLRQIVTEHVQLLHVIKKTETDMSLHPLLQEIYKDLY
As to the kind of experiment: HepG2-mGAMMA assay (PPAR gamma). Type of data set: cell-based. Conditions: HepG2 cells.

Broadly, the melting point is the temperature, or range, at which the solid turns liquid. Usually EC50 stands for the concentration that produces a half-maximal response.

In the case of `Cc1oc(-c2ccccc2)nc1CCCc1ccc(CC(C(=O)O)n2cccn2)cc1` (racemic) [Example 0339165, 3-{4-[3-(5-Methyl-2-phenyl-oxazol-4-yl)-propyl]-phenyl}-2-pyrazol-1-yl-propionic acid], the “In vivo % Rosiglitazone” value in data set [1] was determined as 102.49%. Besides, the “AD3T3-L1 Reporter Max. % Rosi” value in data set [2] was 90 % Rosi. `Cc1oc(-c2ccccc2)nc1CCOc1ccc(CC(F)(C(=O)O)c2ccccc2)cc1` (centres unmarked) [Example 41, 2-Fluoro-3-{4-[2-(5-methyl-2-phenyl-oxazol-4-yl)-ethoxy]-phenyl}-2-phenyl-propionic acid] gave a melting point of 163 to 165 °C. The molecule `CCc1nnc(C(Cc2ccc(OCCc3nc(-c4ccccc4)oc3C)cc2)c2ccccc2)o1` (centres unmarked) [Example 43, 2-Ethyl-5-(2-{4-[2-(5-methyl-2-phenyl-oxazol-4-yl)-ethoxy]-phenyl}-1-phenyl-ethyl)-1,3,4-oxadiazole] returned a melting point of 110 °C. Still for that read-out and setting: under `Cc1oc(-c2ccccc2)nc1CCC(=O)c1ccc(CC(C(=O)O)n2cccc2)cc1` (centres unmarked) [Example 44, 3-{4-[3-(5-Methyl-2-phenyl-oxazol-4-yl)-propionyl]-phenyl}-2-pyrrol-1-yl-propionic acid] stands 90 to 92 °C.

On to `Cc1oc(-c2ccccc2)nc1CCOc1ccc(C[C@@](C)(C(=O)O)n2cccc2)cc1` [Example 52], for which the melting point lay in the range of 149.5 to 150.5 °C.

Consider `CC(C(=O)O)n1ccc2c(OCc3ccccc3)cccc21` (centres unmarked) [Example 60, 2-(4-Benzyloxy-indol-1-yl)-propionic acid], for which the melting point was 143 to 146 °C.

In turn, `Cc1oc(-c2ccccc2)nc1CCOc1cccc2c1ccn2C(C)C(=O)O` (centres unmarked) [Example 65, 2-(4-[2-(5-Methyl-2-phenyl-oxazol-4-yl)-ethoxy]-indol-1-yl)-propionic acid] displayed a melting point of 157 to 159 °C. `Cc1oc(-c2ccccc2)nc1CCOc1ccc(CC(C)(C(=O)O)c2cccs2)cc1` (centres unmarked) [Example 73, 2-Methyl-3-{4-[2-(5-methyl-2-phenyl-oxazol-4-yl)-ethoxy]-phenyl}-2-thiophen-2-yl-propionic acid] came in with a melting point of 165 to 166 °C. The molecule `Cc1oc(-c2ccccc2)nc1CCOc1ccc(CC(C)(C(=O)O)c2ccsc2)cc1` (centres unmarked) [Example 74, 2-Methyl-3-{4-[2-(5-methyl-2-phenyl-oxazol-4-yl)-ethoxy]-phenyl}-2-thiophen-3-yl-propionic acid] registered a melting point of 165 to 166 °C. `Cc1oc(-c2ccccc2)nc1CCOc1ccc(CC(C)(C)C(=O)NS(C)(=O)=O)cc1` [Example 75, N-(2,2-Dimethyl-3-{4-[2-(5-methyl-2-phenyl-oxazol-4-yl)-ethoxy]-phenyl}-propionyl)-methanesulfonamide] showed a melting point of 112 to 113 °C. On the same count and under the same terms, for `Cc1oc(-c2ccccc2)nc1CCOc1ccc(CC(F)(C(=O)NS(C)(=O)=O)c2ccccc2)cc1` (centres unmarked) [Example 76, N-(2-Fluoro-3-{4-[2-(5-methyl-2-phenyl-oxazol-4-yl)-ethoxy]-phenyl}-2-phenyl-propionyl)-methanesulfonamide] the value was 118 to 120 °C; for `Cc1oc(-c2ccccc2)nc1CCOc1cc(CC(C(=O)O)n2cccc2)on1` (centres unmarked) [Example 77, 3-{3-[2-(5-Methyl-2-phenyl-oxazol-4-yl)-ethoxy]-isoxazol-5-yl}-2-pyrrol-1-yl-propionic acid], 143 to 144 °C. Same read-out and setting: under `Cc1oc(-c2ccccc2)nc1CCOc1ccc(CC(C(=O)O)c2nc(-c3ccccc3)oc2C)cc1` (centres unmarked) [Example 79, 2-(5-Methyl-2-phenyl-oxazol-4-yl)-3-{4-[2-(5-methyl-2-phenyl-oxazol-4-yl)-ethoxy]-phenyl}-propionic acid] stands 120 °C; under `Cc1oc(-c2ccccc2)nc1CCCc1ccc(CC(C(=O)O)n2cncn2)cc1` (centres unmarked) [Example 94], 169 to 171 °C.

The molecule `Cc1cc(C(Cc2ccc(CCCc3nc(-c4ccccc4)oc3C)cc2)C(=O)O)on1` (centres unmarked) [Example 104, 2-(3-Methyl-isoxazol-5-yl)-3-{4-[3-(5-methyl-2-phenyl-oxazol-4-yl)-propyl]-phenyl}-propionic acid] registered a melting point of 133 to 135 °C.

Turning to `CC(=O)N(CCc1nc(-c2ccccc2)oc1C)Cc1ccc(C[C@@H](C(=O)O)n2cccc2)cc1` [Example 111, (S)-3-[4-({Acetyl-[2-(5-methyl-2-phenyl-oxazol-4-yl)-ethyl]-amino}-methyl)-phenyl]-2-pyrrol-1-yl-propionic acid], the melting point was in the range of 82 to 87 °C. Same read-out and setting: under `O=C(O)[C@H](Cc1ccc(C#CCN2CCC(c3ccccc3)CC2)cc1)n1cccc1` [Example 121c, (S)-3-{4-[3-(4-Phenyl-piperidin-1-yl)-prop-1-ynyl]-phenyl}-2-pyrrol-1-yl-propionic acid] stands 201 to 203 °C. The same measure, in the same setting: for `O=C(O)[C@H](Cc1ccc(/C=C/CN2CCC(c3ccccc3)CC2)cc1)n1cccc1` [Example 129d, (S)-3-{4-[(E)-3-(4-Phenyl-piperidin-1-yl)-propenyl]-phenyl}-2-pyrrol-1-yl-propionic acid] the value was 126 to 130 °C; for `O=C(O)[C@H](Cc1ccc(CCCN2CCC(c3ccccc3)CC2)cc1)n1cccc1` [Example 131c, (S)-3-{4-[3-(4-Phenyl-piperidin-1-yl)-propyl]-phenyl}-2-pyrrol-1-yl-propionic acid], 95 to 100 °C. On the same count and under the same terms, for `Cc1oc(-c2ccccc2)nc1CCOc1ccc(CC(C(=O)O)(n2cccc2)C(F)(F)F)cc1` (centres unmarked) [Example 159, 3,3,3-Trifluoro-2-{4-[2-(5-methyl-2-phenyl-oxazol-4-yl)-ethoxy]-benzyl}-2-pyrrol-1-yl-propionic acid] the value was 201 to 203 °C. With `Cc1oc(-c2ccccc2)nc1CCCc1ccc(CC(C(=O)O)n2cncn2)cc1` (centres unmarked) [Example 0336683], the “In vivo Δ Glucose@ 20 mg/kg” value in data set [1] (20 mg/kg) was −53. Further, in data set [1], the “In vivo % Rosiglitazone” value is reported as 24.38%. Besides, the EC50 in data set [2] (Mus musculus, 3T3-L1, read-out: AD3T3-L1 Reporter EC50(nM)) stood at 9700 nM. Also, in data set [2], the “AD3T3-L1 Reporter Max. % Rosi” value was found to be 62.8 % Rosi. Take `Cc1oc(-c2ccccc2)nc1CCCc1ccc(CC(C(=O)O)n2ccnn2)cc1` (centres unmarked) [Example 0338227]: in data set [2], the “AD3T3-L1 Reporter Max. % Rosi” value is on record as 59 % Rosi. As to `CCCCCCCN(CCc1ccc(SC(C)(C)C(=O)O)cc1)C(=O)Nc1ccc(F)cc1F` [GW9578], at PPAR alpha, the “HepG2-hAlpha Max. Res. % GW9578” value came to 100.0 % GW9578 and the “HepG2-hAlpha concentration of Max. Res. (uM, in brackets)” value was 1 µM. As for `CN(CCOc1ccc(CC2SC(=O)NC2=O)cc1)c1ccccn1` (centres unmarked) [Rosiglitazone], the “HepG2-mGamma Max. Res. % Rosi.” value on PPAR gamma was determined as 100.0 % Rosi.
